From patent publication US5185330A, “Penam derivatives and salts thereof, and antibacterial agent comprising the same” (Toyama Chemical Co., Ltd., priority 1989, dated 1993)
Converted amounts (≈) assume the structure as drawn. Counter-ions that a name gives are not always drawn. Like-named read-outs stand apart in the source and are kept apart here.

Assays:
[1] = test system: S. marcescens W-8; test: Antibacterial activity (MIC, agar dilution) against S. marcescens W-8*; assay type: cell-based; settings: Serratia marcescens
Experimental: (§1) According to Chemotherapy, vol. 29, No. 1, pp. 76-79 (1981), bacterium was cultured in peptone broth manufactured by Eiken Kagaku K.K. at 37° C. for 20 hours to prepare a bacterial solution of 10^8 cells/ml, and one loopful of the bacterial solution was inoculated into Heart Infusion agar medium (manufactured by Eiken Kagaku K.K.) containing a drug, cultured at 37° C. for 20 hours, after which growth of bacterium was observed. The minimum concentration at which the growth of bacterium was prevented was indicated as MIC (μg/ml).
(§2) *means that β-lactamaseproducing bacteria.

[2] = test system: E. coli TK-3; test: Antibacterial activity (MIC, agar dilution) against E. coli TK-3*; assay type: cell-based; settings: Escherichia coli
Experimental: as §1, §2

[3] = W8, S. marcescens W-8* (β-lactamase-producing bacteria), Heart Infusion agar, 37° C., 20 hours, one loopful of 10^8 cells/ml, read-out: MIC
[4] = TK3, E. coli TK-3* (β-lactamase-producing bacteria), Heart Infusion agar, 37° C., 20 hours, one loopful of 10^8 cells/ml, read-out: MIC

| SMILES | MIC [1, 3] [µg/mL] | MIC [2, 4] [µg/mL] | MIC ([1]; W8, 20 h) [µg/mL] | MIC ([2]; TK3, 20 h) [µg/mL] |
| --- | --- | --- | --- | --- |
| O=C(N[C@@H]1C(=O)N2C[C@@](C(=O)O)(N3CCN(N=C4SCCS4)C3=O)S[C@H]12)C(c1ccccc1)S(=O)(=O)O (some centres unmarked) [compound 26] | – | ≤ 0.1 | 0.39 (≈ 0.664 µM) | – |
| CC(=O)Oc1ccc(C(C(=O)N[C@@H]2C(=O)N3C[C@@](C(=O)O)(N4CCN(NC(N)=O)C4=O)S[C@H]23)S(=O)(=O)O)cc1OC(C)=O (some centres unmarked) [compound 28] | – | 6.25 (≈ 9.7 µM) | 3.13 (≈ 4.86 µM) | – |
| CC(=O)Oc1cc(Cl)c([C@H](C(=O)N[C@@H]2C(=O)N3C[C@@](C(=O)O)(N4CCN(N=CC=NNC(N)=O)C4=O)S[C@H]23)S(=O)(=O)O)cc1OC(C)=O [compound 34] | – | 0.2 (≈ 0.273 µM) | 0.39 (≈ 0.532 µM) | – |
| NC(=O)NN1CCN([C@]2(C(=O)O)CN3C(=O)[C@@H](NC(=O)[C@@H](c4ccc(N)cc4Cl)S(=O)(=O)O)[C@H]3S2)C1=O [compound 35] | – | 1.56 (≈ 2.7 µM) | 0.78 (≈ 1.35 µM) | – |
| NC(=O)NN1CCN([C@]2(C(=O)O)CN3C(=O)[C@@H](NC(=O)[C@@H](c4ccc(O)cc4Cl)S(=O)(=O)O)[C@H]3S2)C1=O [compound 37] | 0.2 (≈ 0.345 µM) | – | – | 0.78 (≈ 1.35 µM) |
| NC(=O)NN1CCN([C@]2(C(=O)O)CN3C(=O)[C@@H](NC(=O)[C@@H](c4ccc(O)cc4F)S(=O)(=O)O)[C@H]3S2)C1=O [compound 38] | – | 1.56 (≈ 2.77 µM) | 0.78 (≈ 1.39 µM) | – |
| NC(=O)NN1CCN([C@]2(C(=O)O)CN3C(=O)[C@@H](NC(=O)[C@@H](c4ccc(O)c(F)c4)S(=O)(=O)O)[C@H]3S2)C1=O [compound 39] | – | – | 0.78 (≈ 1.39 µM) | 3.13 (≈ 5.56 µM) |
| NC(=O)NN1CCN([C@]2(C(=O)O)CN3C(=O)[C@@H](NC(=O)[C@@H](c4ccc(O)cc4)S(=O)(=O)O)[C@H]3S2)C1=O [compound 40] | – | – | 0.78 (≈ 1.43 µM) | 3.13 (≈ 5.75 µM) |
| NC(=O)NN1CCN([C@]2(C(=O)O)CN3C(=O)[C@@H](NC(=O)[C@@H](c4ccc(O)c(O)c4)S(=O)(=O)O)[C@H]3S2)C1=O [compound 41] | 1.56 (≈ 2.78 µM) | – | – | 3.13 (≈ 5.58 µM) |
| NC(=O)NN1CCN([C@]2(C(=O)O)CN3C(=O)[C@@H](NC(=O)[C@@H](c4cc(O)c(O)cc4Cl)S(=O)(=O)O)[C@H]3S2)C1=O [compound 42] | – | 0.2 (≈ 0.336 µM) | 0.39 (≈ 0.655 µM) | – |
| C=CC(=O)NN1CCN([C@]2(C(=O)O)CN3C(=O)[C@@H](NC(=O)C(C(=O)O)c4ccc(O)cc4)[C@H]3S2)C1=O (some centres unmarked) [compound 45] | – | – | 3.13 (≈ 6.03 µM) | 3.13 (≈ 6.03 µM) |
| CON=C(C(=O)N[C@@H]1C(=O)N2C[C@@](C(=O)O)(N3CCN(N=C4SCCS4)C3=O)S[C@H]12)c1csc(N)n1 [compound 47] | 6.25 (≈ 10.9 µM) | – | – | 0.78 (≈ 1.36 µM) |
| C=CC=NN1CCN([C@]2(C(=O)O)CN3C(=O)[C@@H](NC(=O)C(c4cc(O)c(O)cc4Cl)S(=O)(=O)O)[C@H]3S2)C1=O (some centres unmarked) [compound 49] | – | – | ≤ 0.05 | ≤ 0.05 |
| O=C(O)C(C(=O)N[C@@H]1C(=O)N2C[C@@](C(=O)O)(N3CCN(N=C4C=CCC4)C3=O)S[C@H]12)c1ccccc1 (some centres unmarked) [compound 50] | 0.1 (≈ 0.195 µM) | – | – | 0.39 (≈ 0.759 µM) |

Continued, in another order:

| MIC [1, 3] [µg/mL] | MIC [2, 4] [µg/mL] | SMILES | MIC ([1]; W8, 20 h) [µg/mL] | MIC ([2]; TK3, 20 h) [µg/mL] |
| --- | --- | --- | --- | --- |
| 0.78 (≈ 1.15 µM) | 0.78 (≈ 1.15 µM) | CC(=O)Oc1cc(Cl)c(C(C(=O)N[C@@H]2C(=O)N3C[C@@](C(=O)O)(N4CCN(NC(N)=O)C4=O)S[C@H]23)S(=O)(=O)O)cc1OC(C)=O (some centres unmarked) [compound 20] | – | – |
| 0.39 (≈ 0.655 µM) | 0.39 (≈ 0.655 µM) | NC(=O)NN1CCN([C@]2(C(=O)O)CN3C(=O)[C@@H](NC(=O)C(c4cc(O)c(O)cc4Cl)S(=O)(=O)O)[C@H]3S2)C1=O (some centres unmarked) [compound 21] | – | – |
| 12.5 (≈ 18.4 µM) | 6.25 (≈ 9.2 µM) | CC(=O)Oc1cc(C(C(=O)N[C@@H]2C(=O)N3C[C@@](C(=O)O)(N4CCN(NC(N)=O)C4=O)S[C@H]23)S(=O)(=O)O)cc(Cl)c1OC(C)=O (some centres unmarked) [compound 22] | – | – |
| 3.13 (≈ 5.36 µM) | 3.13 (≈ 5.36 µM) | O=C(O)C(C(=O)N[C@@H]1C(=O)N2C[C@@](C(=O)O)(N3CCN(N=C4SCCS4)C3=O)S[C@H]12)c1ccc(O)c(O)c1 (some centres unmarked) [compound 23] | – | – |
| 12.5 (≈ 23.8 µM) | 25 (≈ 47.7 µM) | NC(=O)NN1CCN([C@]2(C(=O)O)CN3C(=O)[C@@H](NC(=O)C(C(=O)O)c4ccc(O)c(O)c4)[C@H]3S2)C1=O (some centres unmarked) [compound 24] | – | – |
| 12.5 (≈ 22.4 µM) | 6.25 (≈ 11.2 µM) | NC(=O)NN1CCN([C@]2(C(=O)O)CN3C(=O)[C@@H](NC(=O)C(C(=O)O)c4cc(O)c(O)cc4Cl)[C@H]3S2)C1=O (some centres unmarked) [compound 25] | – | – |
| 3.13 (≈ 5.34 µM) | 6.25 (≈ 10.7 µM) | CC(=O)Oc1ccc(C(C(=O)N[C@@H]2C(=O)N3C[C@@](C(=O)O)(N4CCN(NC(N)=O)C4=O)S[C@H]23)S(=O)(=O)O)cc1 (some centres unmarked) [compound 29] | – | – |
| 1.56 (≈ 2.87 µM) | 6.25 (≈ 11.5 µM) | NC(=O)NN1CCN([C@]2(C(=O)O)CN3C(=O)[C@@H](NC(=O)C(c4ccc(N)cc4)S(=O)(=O)O)[C@H]3S2)C1=O (some centres unmarked) [compound 30] | – | – |
| 0.1 (≈ 0.195 µM) | 0.2 (≈ 0.39 µM) | N#CC=CC=NN1CCN([C@]2(C(=O)O)CN3C(=O)[C@@H](NC(=O)C(C(=O)O)c4ccccc4)[C@H]3S2)C1=O (some centres unmarked) [compound 31] | – | – |
| 0.78 (≈ 1.55 µM) | 1.56 (≈ 3.09 µM) | NC(=O)C=NN1CCN([C@]2(C(=O)O)CN3C(=O)[C@@H](NC(=O)C(C(=O)O)c4ccccc4)[C@H]3S2)C1=O (some centres unmarked) [compound 32] | – | – |
| 0.2 (≈ 0.377 µM) | 0.39 (≈ 0.735 µM) | NC(=O)C=CC=NN1CCN([C@]2(C(=O)O)CN3C(=O)[C@@H](NC(=O)C(C(=O)O)c4ccccc4)[C@H]3S2)C1=O (some centres unmarked) [compound 33] | – | – |
| 1.56 (≈ 2.51 µM) | 12.5 (≈ 20.1 µM) | NC(=O)Nc1ccc([C@H](C(=O)N[C@@H]2C(=O)N3C[C@@](C(=O)O)(N4CCN(NC(N)=O)C4=O)S[C@H]23)S(=O)(=O)O)c(Cl)c1 [compound 36] | – | – |
| 0.2 (≈ 0.308 µM) | 0.2 (≈ 0.308 µM) | NC(=O)NN=CC=NN1CCN([C@]2(C(=O)O)CN3C(=O)[C@@H](NC(=O)[C@@H](c4cc(O)c(O)cc4Cl)S(=O)(=O)O)[C@H]3S2)C1=O [compound 43] | – | – |
| 6.25 (≈ 11.5 µM) | 6.25 (≈ 11.5 µM) | NS(=O)(=O)NN1CCN([C@]2(C(=O)O)CN3C(=O)[C@@H](NC(=O)C(C(=O)O)c4ccc(O)cc4)[C@H]3S2)C1=O (some centres unmarked) [compound 44] | – | – |
| 6.25 (≈ 11.5 µM) | 12.5 (≈ 23 µM) | Cn1cc(C=NN2CCN([C@]3(C(=O)O)CN4C(=O)[C@@H](NC(=O)C(C(=O)O)c5ccccc5)[C@H]4S3)C2=O)nn1 (some centres unmarked) [compound 46] | – | – |
| 0.1 (≈ 0.158 µM) | 0.1 (≈ 0.158 µM) | O=C(O)C=CC=NN1CCN([C@]2(C(=O)O)CN3C(=O)[C@@H](NC(=O)C(c4cc(O)c(O)cc4Cl)S(=O)(=O)O)[C@H]3S2)C1=O (some centres unmarked) [compound 48] | – | – |
| > 200 | > 200 | CCN1CCN(C(=O)N[C@@H](C(=O)N[C@@H]2C(=O)N3C[C@@](C(=O)O)(N4CCN(C)C4=O)S[C@H]23)c2ccccc2)C(=O)C1=O [compound 51, Sodium salt of (3R,5R,6R)3-carboxy-6-[D-α-(4-ethyl-2,3-dioxo-1-piperazinecarboxamio)-α-phenylacetamido]-3-(3-methyl-2-oxoimidazolidin-1-yl)-7-oxo-4-tha-1-azabicyclo[3.2.0]heptane, reference compound] | – | – |
